# Assay results taken from patent US12427179B2, “Compositions and methods for diagnosis and treatment of neurodegenerative diseases” (EPITRACKER, INC., priority 2019, dated 2025).
# How the values were obtained:
# [1] = system: /Mphg: Macrophages, venular endothelial cells (TLR2 ligand); experiment: BioMAP /Mphg system; format: cell-based, human; conditions: at the compound's active concentration
# Excerpt: (§1) The Diversity PLUS panel allows test agent characterization in an unbiased way across a broad set of systems modeling various human disease states. These systems are designed to model complex human tissue and disease biology of the vasculature, skin, lung, and inflammatory tissues. Quantitative measurements of 148 biomarker activities across this broad panel, along with comparative analysis of biological activities from known bioactive agents, were used to predict and compare the efficacy and function of each selected compound at selected concentrations (6.7 and/or 20 μM).
# (§2) BioMAP systems are constructed with one or more primary cell types from healthy human donors, with stimuli (such as cytokines or growth factors) added to capture relevant signaling networks that naturally occur in human tissue or pathological conditions. Vascular biology is modeled in both a Th1 (3C system) and a Th2 (4H system) inflammatory environment, as well as in a Th1 inflammatory state specific to arterial smooth muscle cells (CASM3C system). Additional systems recapitulate aspects of the systemic immune response including monocyte-driven Th1 inflammation (LPS system) or T cell stimulation (SAg system), chronic Th1 inflammation driven by macrophage activation (lMphg system) and the T cell-dependent activation of B cells that occurs in germinal centers (BT system). The BE3C system (Th1) and the BF4T system (Th2) represent airway inflammation of the lung, while the MyoF system models myofibroblast-lung tissue remodeling. Lastly, skin biology is addressed in the KF3CT system modeling Th1 cutaneous inflammation and the HDF3CGF system modeling wound healing.
# (§3) Each test agent generates a signature BioMAP profile that is created from the changes in protein biomarker readouts within individual system environments. Biomarker readouts (7-17 per system) are selected for therapeutic and biological relevance, are predictive for disease outcomes or specific drug effects and are validated using agents with known mechanism of action (MoA). Each readout is measured quantitatively by immune-based methods that detect protein (e.g., ELISA) or functional assays that measure proliferation and viability. BioMAP readouts are diverse and include cell surface receptors, cytokines, chemokines, matrix molecules and enzymes. In total, the Diversity PLUS panel contains 148 biomarker readouts that capture biological changes that occur within the physiological context of the particular BioMAP system. […]
# (§4) Activated BioMAP systems were incubated with each compound for 24 to 72 hours. Protein-based biomarkers from activated cell systems were measured and compared with non-treated control systems.
# [2] = system: BT: Peripheral blood mononuclear cells, B cells (α-IgM, TCR ligands); experiment: BioMAP BT system; format: cell-based, human
# Method: (§5) Anti-inflammatory phenotypic profiling was conducted across 12 human primary cell-based systems as part of DiscoverX's BioMAP Diversity Plus program. These systems are designed to model complex human tissue and disease biology of the vasculature, skin, lung, and inflammatory tissues. Quantitative measurements of biomarker activities across this broad panel were used to assess each biochemical's anti-inflammatory activity at four concentrations ([…] and 2.2, 6.7 and 20 μM). […] Protein-based biomarkers from activated cell systems were measured and compared with controls. Biomarker activities were annotated when 2 or more consecutive concentrations change in the same directions relative to vehicle controls, were outside of the significance envelope and had at least one concentration with an effect size>20% (log 10 ratio)>0.1.
# (§6) In the first system, human primary peripheral blood mononuclear cells and venular endothelial cells were stimulated with lipopolysaccharide (LPS) and incubated with the test agent, drug control, or vehicle control for 24 hours. In the second system, peripheral blood mononuclear cells and B cells were stimulated with α-IgM and T cell receptor ligands and incubated with the test agent, drug control, or vehicle control for 24 hours. In both systems, a negative, non-stimulated system was also included.
# as §1, §2, §3
# [3] = system: human primary cell-based systems; experiment: BioMAP Diversity PLUS panel, phenotypic profiling; conditions: tested at 6.7 and/or 20 μM; 24 to 72 hours
# Method: as §5, with “controls.” for “controls. Biomarker activities were annotated when 2 or more consecutive concentrations change in the same directions relative to vehicle controls, were outside of the significance envelope and had at least one concentration with an effect size>20% (log 10 ratio)>0.1.”
# as §1, §2
# (§7) Each test agent generates a signature BioMAP profile that is created from the changes in protein biomarker readouts within individual system environments. Biomarker readouts (7-17 per system) are selected for therapeutic and biological relevance, are predictive for disease outcomes or specific drug effects and are validated using agents with known mechanism of action (MoA). Each readout is measured quantitatively by immune-based methods that detect protein (e.g., ELISA) or functional assays that measure proliferation and viability. BioMAP readouts are diverse and include cell surface receptors, cytokines, chemokines, matrix molecules and enzymes. In total, the Diversity PLUS panel contains 148 biomarker readouts that capture biological changes that occur within the physiological context of the particular BioMAP system.
# as §4
# [4] = system: 4H: Venular endothelial cells (IL-4, histamine); experiment: BioMAP 4H system; format: cell-based, human; conditions: at the compound's active concentration
# Excerpt: as §1
# BioMAP systems are constructed with one or more primary cell types from healthy human donors, with stimuli (such as cytokines or growth factors) added to capture relevant signaling networks that naturally occur in human tissue or pathological conditions. Vascular biology is modeled in both a Th1 (3C system) and a Th2 (4H system) inflammatory environment, as well as in a Th1 inflammatory state specific to arterial smooth muscle cells (CASM3C system). […]
# as §3, §4
# [5] = system: LPS: Venular endothelial cells, peripheral blood mononuclear cells (TLR4 ligand); experiment: BioMAP LPS system; format: cell-based, human
# Method: as §5, §6, §1, §2, §3
# [6] = system: CASM3C: Coronary artery smooth muscle cells (IL-1β, TNFα, IFNγ); experiment: BioMAP CASM3C system; format: cell-based, human; conditions: at the compound's active concentration
# Excerpt: (§8) The Diversity PLUS panel allows test agent characterization in an unbiased way across a broad set of systems modeling various human disease states. These systems are designed to model complex human tissue and disease biology of the vasculature, skin, lung, and inflammatory tissues.
# as §2
# as §7, with “enzymes.” for “enzymes. In total, the Diversity PLUS panel contains 148 biomarker readouts that capture biological changes that occur within the physiological context of the particular BioMAP system.”
# as §4
# [7] = system: 3C system (Th1 vascular biology); experiment: BioMAP 3C system; format: cell-based, human; conditions: at the compound's active concentration
# Excerpt: as §3, with “The Diversity PLUS panel allows test agent characterization in an unbiased way across a broad set of systems modeling various human disease states. These systems are designed to model complex human tissue and disease biology of the vasculature, skin, lung, and inflammatory tissues. […] BioMAP systems are constructed with one or more primary cell types from healthy human donors, with stimuli (such as cytokines or growth factors) added to capture relevant signaling networks that naturally occur in human tissue or pathological conditions. […] Each test” for “Each test”
# [8] = system: BE3C: Bronchial epithelial cells (IL-1β, IFNγ, TNFα); experiment: BioMAP BE3C system; format: cell-based, human; conditions: at the compound's active concentration
# Excerpt: as §8, §2
# as §7, with “enzymes.” for “enzymes. In total, the Diversity PLUS panel contains 148 biomarker readouts that capture biological changes that occur within the physiological context of the particular BioMAP system.”
# as §4
# [9] = system: SAg: Venular endothelial cells, peripheral blood mononuclear cells (TCR ligands); experiment: BioMAP SAg system; format: cell-based, human; conditions: SAg system; at the compound's active concentration
# Method: as §5
# In this system, human primary peripheral blood mononuclear cells and human umbilical vein endothelial cells were stimulated with T-cell receptor ligands and incubated with the test agent, drug control, or vehicle control for 24 hours. A negative, non-stimulated system was also included. […] This antiproliferative activity was lost at higher concentrations (20 μM). In this system, T cell proliferation is considered a critical event driving an inflammatory response.
# as §1, with “μM). […]” for “μM).”
# as §3
# [10] = system: HDF3CGF: Dermal fibroblasts; experiment: BioMAP HDF3CGF system; format: cell-based, human; conditions: at the compound's active concentration
# Excerpt: as §1, §2
# as §7, with “system. Specific BioMAP activities have been correlated to in vivo biology, and multiparameter BioMAP profiles have been used to distinguish compounds based on MoA and target selectivity across diverse physiological systems.” for “system.”
# as §4
# [11] = BT system, at the compound's active concentration
# [12] = at the compound's active concentration
structure (smiles),measurement,setting,value
"COc1cc(C(O)C(=O)O)ccc1O (centres unmarked) [vanillylmandelate (VMA), vanillylmandelate]","IL-8, log10 reduction vs nontreated controls",[1],−0.18 log10
CC(=O)N[C@H](C(=O)O)[C@@H](C)O [N-acetylthreonine],"Secreted IgG, log10 reduction vs nontreated controls",[2]; [11],−0.41 log10
same,Active concentrations,[3],20 µM
same,"VEGFR2, log10 reduction vs nontreated controls",[4],−0.16 log10
O=c1[nH]c(=O)c2ncn([C@@H]3O[C@H](CO)[C@@H](O)[C@H]3O)c2[nH]1 [xanthosine],"CD40, log10 reduction vs nontreated controls",[5]; [12],−0.12 log10
same,"Tissue factor, log10 reduction vs nontreated controls",[5]; [12],−0.13 log10
same,"IL-8, log10 reduction vs nontreated controls",[1],−0.13 log10
same,"Tissue factor, log10 reduction vs nontreated controls",[6]; CASM3C system (system cell not printed on the line),−0.13 log10
same,"Thrombomodulin, log10 reduction vs nontreated controls",[6]; CASM3C system,−0.11 log10
same,Active concentrations,[3],6.7 to 20 µM
N[C@@H](CCC(=O)N[C@@H](Cc1c[nH]cn1)C(=O)O)C(=O)O [gamma-glutamylhistidine],"CD40, log10 reduction vs nontreated controls",[5]; [12],−0.11 log10
same,"E-selectin, log10 reduction vs nontreated controls",[5]; [12],−0.11 log10
same,"Tissue factor, log10 reduction vs nontreated controls",[7],−0.12 log10
same,"IL-8, log10 reduction vs nontreated controls",[1],−0.15 log10
same,"MMP-1, log10 reduction vs nontreated controls",[8],−0.10 log10
same,"Thrombomodulin, log10 reduction vs nontreated controls",[6]; CASM3C system,−0.12 log10
same,"TNF-alpha (sTNF-alpha), log10 reduction vs nontreated controls",[2]; [11],−0.18 log10
same,Active concentrations,[3],20 µM
N=C(N)NCCCC(=O)O [4-guanidinobutanoate],"CD38, log10 reduction vs nontreated controls",[9],−0.10 log10
same,"T cell proliferation, log10 reduction vs nontreated controls",[9],−0.13 log10
same,"CXCL10, log10 reduction vs nontreated controls",[10],−0.11 log10
same,"CXCL11, log10 reduction vs nontreated controls",[10],−0.19 log10
same,"Collagen III, log10 reduction vs nontreated controls",[10],−0.30 log10
same,"Fibroblast proliferation, log10 reduction vs nontreated controls",[10],−1.09 log10
same,"TIMP-1, log10 reduction vs nontreated controls",[10],−0.14 log10
same,"VCAM-1, log10 reduction vs nontreated controls",[10],−0.19 log10
same,"Secreted IgG, log10 reduction vs nontreated controls",[2]; [11],−0.49 log10
same,"TNF-alpha (sTNF-alpha), log10 reduction vs nontreated controls",[2]; [11],−0.10 log10
same,"sIL-17A, log10 reduction vs nontreated controls",[2]; [11],−0.17 log10
same,Active concentrations,[3],6.7 to 20 µM
same,"MCP-1, log10 reduction vs nontreated controls",[4],−0.12 log10
C[C@H](CCC(=O)O)[C@H]1CC[C@H]2[C@@H]3[C@H](O)C[C@@H]4C[C@H](O)CC[C@]4(C)[C@H]3C[C@H](O)[C@]12C [cholate],"Tissue factor, log10 reduction vs nontreated controls",[5]; [12],−0.13 log10
same,"MMP-1, log10 reduction vs nontreated controls",[8],−0.10 log10
same,"Thrombomodulin, log10 reduction vs nontreated controls",[6]; CASM3C system,−0.12 log10
same,Active concentrations,[3],20 µM
O=C(O)c1cc(O)c2cccc(O)c2n1 [xanthurenate],"Secreted prostaglandin E2 (PGE2), log10 reduction vs nontreated controls",[5]; 20 μM,−0.09 log10
same,"Secreted interleukin 6 (IL-6), log10 reduction vs controls",[2]; BT system (second system),−0.13 log10
same,"TNF-alpha (sTNF-alpha), log10 reduction vs nontreated controls",[2]; [11],−0.19 log10
O[C@H]1[C@H](O)[C@@H](O)[C@H](O)[C@@H](O)[C@H]1O [myo-inositol],"MMP-1, log10 reduction vs nontreated controls",[8],−0.12 log10
same,"M-CSF, log10 reduction vs nontreated controls",[6]; CASM3C system,−0.10 log10
same,Active concentrations,[3],6.7 µM
